Test results from patent US20100144674A1, “PYRIDAZINE DERIVATIVES” (SYNGENTA CROP PROTECTION, INC., priority 2006, published 2010).

Assays:
Septoria Tritici = assay: Septoria tritici / wheat / preventive (Septoria leaf spot); type: in vivo; settings: Zymoseptoria tritici, preventive spray, wheat plants cv. Riband, assessed 16-18 days after inoculation, read-out: inhibits fungal infestation
Experimental: Septoria Tritici/Wheat/Preventive (Action Against Septoria Leaf Spot on Wheat) 2 weeks old wheat plants cv. Riband are treated with the formulated test compound in a spray chamber. One day after application wheat plants are inoculated by spraying a spore suspension (10^6 conidia/ml) on the test plants. After an incubation period of 1 day at 22° C./21° C. and 95% r. h. plants are kept at 22° C./21° C. and 70% r.h. in a greenhouse. The disease incidence is assessed 16-18 days after inoculation.

Uncinula Necator = assay: Uncinula necator / grape / preventive (powdery mildew); type: in vivo; settings: Erysiphe necator, 168 h, preventive spray, grape seedlings cv. Gutedel, assessed 7 days after inoculation, read-out: inhibit fungal infestation
Experimental: Uncinula Necator/Grape/Preventive (Action Against Powdery Mildew on Grape) 5 weeks old grape seedlings cv. Gutedel are treated with the formulated test compound in a spray chamber. One day after application grape plants are inoculated by shaking plants infected with grape powdery mildew above the test plants. After an incubation period of 7 days at 24° C./22° C. and 70% r. h. under a light regime of 14/10 h (light/dark) the disease incidence is assessed.

Botrytis Cinerea = assay: Botrytis cinerea / tomato / preventive; type: in vivo; settings: 72 h, preventive spray, tomato plants cv. Roter Gnom, assessed 3 days after inoculation, read-out: inhibit fungal infestation
Experimental: (§1) Botrytis Cinerea/Tomato/Preventive (Action Against Botrytis on Tomato) 4 weeks old tomato plants cv. Roter Gnom are treated with the formulated test compound in a spray chamber. Two days after application tomato plants are inoculated by spraying a spore suspension on the test plants. After an incubation period of 3 days at 20° C. and 95% r. h. in a greenhouse the disease incidence is assessed.

[1] = test system: Pyrenophora Teres (Helminthosporium Teres); assay: Pyrenophora teres (Helminthosporium teres) / barley / preventive (net blotch); type: in vivo; settings: 96 h, preventive spray, barley plants cv. Regina, assessed 4 days after inoculation, read-out: inhibit fungal infestation
Experimental: Pyrenophora Teres (Helminthosporium Teres)/Barley/Preventive (Action Against Net Blotch on Barley) 1-week-old barley plants cv. Regina are treated with the formulated test compound in a spray chamber. Two days after application barley plants are inoculated by spraying a spore suspension (2.6×10^4 conidia/ml) on the test plants. After an incubation period of 4 days at 20° C. and 95% r. h. the disease incidence is assessed.

Puccinia Recondita = assay: Puccinia recondita / wheat / preventive (brown rust); type: in vivo; settings: 264 h, preventive spray, wheat plants cv. Arina, assessed 11 days after inoculation, read-out: inhibits fungal infestation
Experimental: Puccinia Recondita/Wheat/Preventive (Action Against Brown Rust on Wheat) 1 week old wheat plants cv. Arina are treated with the formulated test compound in a spray chamber. One day after application wheat plants are inoculated by spraying a spore suspension ([…] uredospores/ml) on the test plants. After an incubation period of 1 day at 20° C. and 95% r. h. plants are kept for 10 days 20° C./18° C. (day/night) and 60% r.h. in a greenhouse. The disease incidence is assessed 11 days after inoculation.

[2] = test system: Magnaporthe Grisea (Pyricularia Oryzae); assay: whole plant or invertebrate; type: in vivo; settings: 144 h, read-out: inhibit fungal infestation
Alternaria Solani = assay: Alternaria solani / tomato / preventive; type: in vivo; settings: 96 h, preventive spray, tomato plants cv. Roter Gnom, assessed 4 days after inoculation, read-out: inhibit fungal infestation
Experimental: as §1, with “Alternaria Solani/Tomato/Preventive” for “Botrytis Cinerea/Tomato/Preventive”, “Alternaria” for “Botrytis”, “4” for “3”, “22° C./18°” for “20°”

SMILES	inhibition at 200 ppm (Septoria Tritici) [%]	inhibition at 200 ppm (Uncinula Necator) [%]	inhibition at 200 ppm (Botrytis Cinerea) [%]	inhibition at 200 ppm [1] [%]	inhibition at 200 ppm (Puccinia Recondita) [%]	inhibition at 200 ppm [2] [%]	melting point [°C]	inhibition at 200 ppm (Alternaria Solani) [%]
Cc1nnc(Cl)c(-c2c(F)cc(F)cc2F)c1-c1ccc2ccccc2c1 [I.ae.198, 3-chloro-6-methyl-5-naphthalen-2-yl-4-(2,4,6-trifluorophenyl)-pyridazine]	≥ 80	≥ 80	≥ 80	≥ 80	≥ 80	≥ 80	86 to 89	≥ 80
Cc1nnc(F)c(-c2c(F)cc(F)cc2F)c1-c1ccc2ccccc2c1 [I.ae.197, 3-fluoro-6-methyl-5-naphthalen-2-yl-4-(2,4,6-trifluorophenyl)-pyridazine]	≥ 80	–	≥ 80	≥ 80	≥ 80	≥ 80	108 to 110	–
Cc1nnc(C)c(-c2c(F)cccc2Cl)c1-c1ccc2ccccc2c1 [I.ae.080, 4-(2-chloro-6-fluorophenyl)-3,6-dimethyl-5-naphthalen-2-yl-pyridazine]	≥ 80	–	–	–	–	≥ 80	120 to 123	≥ 80
COc1nnc(C)c(-c2ccc3ccccc3c2)c1-c1c(F)cc(F)cc1F [I.ae.199, 3-methoxy-6-methyl-5-naphthalen-2-yl-4-(2,4,6-trifluorophenyl)-pyridazine]	–	≥ 80	≥ 80	≥ 80	–	–	138 to 140	≥ 80
COc1nnc(C)c(-c2ccc3ccccc3c2)c1-c1c(F)cccc1Cl [I.ae.079, 4-(2-chloro-6-fluorophenyl)-3-methoxy-6-methyl-5-naphthalen-2-yl-pyridazine]	–	≥ 80	≥ 80	–	–	≥ 80	182 to 184	–
Cc1n[nH]c(=O)c(-c2c(F)cc(F)cc2F)c1-c1ccc2ccccc2c1 [I.ae.196, 6-methyl-5-naphthalen-2-yl-4-(2,4,6-trifluorophenyl)-2H-pyridazin-3-one]	–	–	–	–	–	–	266 to 268	–
